# Measured values reported in article PMC12749748, “Chemically-induced degradation of the endoplasmic-reticulum stress sensor IRE1 by a VHL-recruiting chimera” (Nature Communications, 2025).
# Test system: kinases inhibited by 90% or more
# Assay: Immunoblot of kinases inhibited by 90% or more, for depletion in AMO1 and KMS27 cells
# Type: cell-based
# Settings: AMO1 and KMS27 cells, 0.1, 0.3 and 1 µM, 4 h
# Procedure: Cells were lysed in buffer containing 20 mM HEPES 7.2, 150 mM NaCl, and 1% Triton X-100, supplemented with fresh protease and phosphatase inhibitors (Invitrogen, #78440), cleared by centrifugation at 12,000 × g for 10 min, and analyzed by BCA protein assay (Thermo Fisher Scientific, #23227). Equal protein amounts were loaded, separated by SDS-PAGE, electrotransferred to nitrocellulose membranes using the iBLOT2 system (Invitrogen), and blocked in 5% nonfat milk solution for 60 min. Membranes were probed with primary antibodies at 1:1000 dilution in 5% milk at 4 °C overnight. Signal was detected using appropriate horseradish peroxidase (HRP)-conjugated secondary antibodies at 1:10,000 in 5% milk at room temperature for 1–2 h. Bands were visualized by the Azure 600 western blot imaging system (Azure Biosystems). For in vitro ubiquitination assays performed with Me-Ub, bands were visualized by the Odyssey CLx Imager (LI‑COR) after incubating the blots with the IRDye 800CW (LI-COR) secondary antibodies at 1:10,000 in Intercept Blocking Buffer (LI-COR) at room temperature for 1–2 h. […]
# The kinome selectivity of G6374 was assessed at 1 μM for 1 h versus a panel of 220 human kinases (SelectScreen Kinase Profiling Services, Thermo Fisher Scientific). […]
structure (smiles),measurement,value
Cc1ncsc1-c1ccc(CNC(=O)[C@@H]2C[C@@H](O)CN2C(=O)[C@@H](NC(=O)CCCCN2CCN([C@H]3CC[C@H](Nc4ncc5ccc(=O)n(C(C)C)c5n4)CC3)CC2)C(C)(C)C)cc1 [G6374],depletion of the other eight kinases (JNK3 not detectable),not appreciably depleted
